# Test results reported in patent US8703805B2 (Exelixis Patent Company LLC, priority 2005, dated 2014).
# Test system: LXRα and/or LXRβ
# Assay: LXR/LXRE co-transfection assay (luciferase reporter, CV-1 cells)
# Assay type: cell-based, human
# Settings: IC50 or EC50 for LXR (LXRα and/or LXRβ, not distinguished), tested as described in Example 109, CV-1 cells
# Excerpt: To measure the ability of compounds to activate or inhibit the transcriptional activity of LXR in a cell based assay, the co-transfection assay was used. It has been shown that LXR functions as a heterodimer with RXR. For the co-transfection assay; expression plasmids for LXR and RXR are introduced via transient transfection into mammalian cells along with a luciferase reporter plasmid that contains one copy of a DNA sequence that is bound by LXR-RXR heterodimers (LXRE; Willy, P. ad. 1995). Treatment of transfected cells with an LXR agonist increases the transcriptional activity of LXR, which is measured by an increase in luciferase activity.
# CV-1 African Green Monkey Kidney Cells Co-transfection expression plasmids, comprising full-length LXRα (pCMX-h LXRα, LXRβ (pCMX-hLXRβ), or RXRα (pCMX-RXR), reporter plasmid (LXREx1-Tk-Luciferase), and control (pCMX-Galactosidase expression vector) (Willey et al. Genes & Development 91033-1045 (1995)). Transfection reagent such as FuGENE6 (Roche). 1× Cell lysis buffer (1% Triton X 100 (IT Baker X200-07), 10% Glycerol (JT Baker M778-07), 5 mM Ditriotreitol (Quantum Bioprobe DTT03; add fresh before lysing), 1 mM EGTA (Ethylene Glycol-bis(B-Amino ethyl ether)-N,N,N′,N′-Tetracetic Acid) (Sigma E-4378), 25 mM Tricine (ICN 807420) pH 7.8) 1× Luciferase assay buffer (pH at 7.8) (0.73 mM ATP, 22.3 mM Tricine, 0.11 mM EDTA, 33.3 mM DTT) 1× Luciferrin/CoA (11 mM Luciferin, 3.05 mM Coenzyme A, 10 mM HEPES) Preparation of Screening Reagents
# CV-1 cells were prepared 24 hours prior to the experiment by plating them into T-175 flasks or 500 cm^2 dishes in order to achieve 70-80% confluency on the day of the transfection. The number of cells to be transfected was determined by the number of plates to be screened. each 384 well plate requires 1.92×10^6 cells or 5000 cells per well. DNA Transfection Reagent was prepared by mixing the required plasmid DNAs with a cationic lipid transfection reagent FuGENE6 (Roche) by following the instructions provided with the reagents. Optimal DNA amounts were determined empirically per cell line and size of vessel to be transfected. 10-12 mL of media was added to the DNA Transfection Reagent and this mixture was added to the cells after aspirating media from the T175 cm^2 flask. Cells were then incubated at least 5 hours at 37° C. to prepare screening cells.
# Luciferase assay reagent was prepared by combining before use (per 10 mL): […], 0.54 mL of 1× Luciferrin/CoA; 0.54 mL of 0.2 M Magnesium sulfate
# Assay plates were prepared by dispensing 5 μL of compound per well of a 384 well plate to achieve final compound concentration of 10 μM and no more than 1% DMSO. Media was removed from the screening cells, the cells trypsinized, harvested cells by centrifugation, counted, and plated at a density of approximately 5000 cells per well in the 384 well assay plate prepared above in a volume of about 45 μL. Assay plates containing both compounds and screening cells (50 μL in total volume) were incubated for 20 hours at 37° C.
# After incubation with compounds, media was removed from the cells and lysis buffer (30 μL/well) added. After 30 minutes at ambient temperature, luciferase assay buffer (30 μL/well) was added and the assay plates read on a luminometer (PE Biosystems Northstar reader with on-board injectors, or equivalent). Plates were read immediately after addition of luciferase assay buffer.
# The LXR/LXRE co-transfection assay can be used to establish the EC50/IC50 values for potency and percent activity or inhibition for efficacy. Efficacy defines the activity of a compound relative to a high control ((N-(3-((4-fluorophenyl)-(naphthalene-2-sulfonyl)amino)propyl)-2,2-dimethylpropionamide)) or a low control (DMSO/vehicle). The dose response curves are generated from an 8 point curve with concentrations differing by ½ LOG units. each point represents the average of 4 wells of data from a 384 well plate. […]
row,Structure (SMILES),EC50
1,"CC(C)(O)c1cc(-c2ccc(-c3ccc4cc[nH]c4c3)cc2)n(-c2ccccc2Cl)n1 [Example 1282, 2-{1-(2-chlorophenyl)-5-[4-(1H-indol-6-yl)phenyl]-1H-pyrazol-3-yl}propan-2-ol]",1000 to 10000 nM
2,"CS(=O)(=O)c1cccc(-c2ccc(-c3cc(C(=O)NCC(F)(F)F)nn3-c3ccccc3Cl)s2)c1 [Example 1161, 1-(2-chlorophenyl)-5-{5-[3-(methylsulfonyl)phenyl]-2-thienyl}-N-(2,2,2-trifluoroethyl)-1H-pyrazole-3-carboxamide]",< 1000 nM
3,"CC(C)(N)c1cc(-c2ccc(-c3cccc(S(C)(=O)=O)c3)s2)n(-c2ccccc2Cl)n1 [Example 1151, 2-[1-(2-chlorophenyl)-5-{5-[3-(methylsulfonyl)phenyl]-2-thienyl}-1H-pyrazol-3-yl]propan-2-amine]",1000 to 10000 nM
4,"CC(C)(NC=O)c1cc(-c2ccc(-c3cccc(S(C)(=O)=O)c3)s2)n(-c2ccccc2Cl)n1 [Example 1203, N-{1-[1-(2-chlorophenyl)-5-{5-[3-(methylsulfonyl)phenyl]-2-thienyl}-1H-pyrazol-3-yl]-1-methylethyl}formamide]",1000 to 10000 nM
5,"Cc1ccc(F)cc1-n1nc(C(C)(C)O)cc1-c1ccc(-c2cccc(S(C)(=O)=O)c2)s1 [Example 1331, 2-[1-(5-fluoro-2-methylphenyl)-5-{5-[3-(methylsulfonyl)phenyl]-2-thienyl}-1H-pyrazol-3-yl]propan-2-ol]",< 1000 nM
6,"CC(C)(O)c1nn(-c2ccc(-c3cccc(S(C)(=O)=O)c3)cc2)c(-c2ccccc2Cl)c1Cl [Example 110, 2-(4-chloro-5-(2-chlorophenyl)-1-(3′-(methylsulfonyl)biphenyl-4-yl)-1H-pyrazol-3-yl)propan-2-ol]",< 1000 nM
7,"CC(C)(O)c1cccc(-n2nc(C(C)(C)O)cc2-c2ccc(-c3cccc(S(C)(=O)=O)c3)s2)c1 [Example 1226, 2-{3-[3-(1-hydroxy-1-methylethyl)-5-{5-[3-(methylsulfonyl)phenyl]-2-thienyl}-1H-pyrazol-1-yl]phenyl}propan-2-ol]",1000 to 10000 nM
8,"CC(C)(O)c1nn(-c2cccc(Cl)c2F)c(-c2ccc(-c3cccc(S(C)(=O)=O)c3)s2)c1Cl [Example 1366, 2-[4-chloro-1-(3-chloro-2-fluorophenyl)-5-{5-[3-(methylsulfonyl)phenyl]-2-thienyl}-1H-pyrazol-3-yl]propan-2-ol]",< 1000 nM
9,"CC(C)(O)c1cc(-c2c(F)cccc2Cl)n(-c2ccc(-c3cccc(S(C)(=O)=O)c3)cc2F)n1 [Example 120, 2-(5-(2-chloro-6-fluorophenyl)-1-(3-fluoro-3′-(methylsulfonyl)biphenyl-4-yl)-1H-pyrazol-3-yl)propan-2-ol]",< 1000 nM
10,"CC(C)(O)c1cc(-c2ccc(-c3cccc(S(C)(=O)=O)c3)cn2)n(-c2ccccc2Cl)n1 [Example 119, 2-(1-(2-chlorophenyl)-5-(5-(3-(methylsulfonyl)phenyl)pyridin-2-yl)-1H-pyrazol-3-yl)propan-2-ol]",1000 to 10000 nM
11,"CS(=O)(=O)c1cccc(-c2ccc(-c3c(Br)c(C(F)(F)F)nn3-c3c(Cl)cccc3Cl)s2)c1 [Example 1313, 4-bromo-1-(2,6-dichlorophenyl)-5-{5-[3-(methylsulfonyl)phenyl]-2-thienyl}-3-(trifluoromethyl)-1H-pyrazole]",< 1000 nM
12,"CONC(=O)c1cc(-c2ccc(-c3cccc(S(C)(=O)=O)c3)s2)n(-c2ccccc2Cl)n1 [Example 1163, 1-(2-chlorophenyl)-N-(methyloxy)-5-{5-[3-(methylsulfonyl)phenyl]-2-thienyl}-1H-pyrazole-3-carboxamide]",1000 to 10000 nM

# The remaining lines, values ahead:
row,EC50,Structure (SMILES)
1,< 1000 nM,"CS(=O)(=O)c1cccc(-c2ccc(-c3c(Cl)c(C(=O)NCC(F)(F)F)nn3-c3cccnc3C(F)(F)F)c(Cl)c2)c1 [Example 1403, 4-chloro-5-(3-chloro-3′-(methylsulfonyl)biphenyl-4-yl)-N-(2,2,2-trifluoromethyl)-1-(2-(trifluoromethyl)pyridin-3-yl)-1H-pyrazole-3-carboxamide]"
2,1000 to 10000 nM,"CC(=O)c1ccc(-c2ccc(-c3cc(C(C)(C)O)nn3-c3ccccc3Cl)cc2)s1 [Example 1290, 1-(5-{4-[1-(2-chlorophenyl)-3-(1-hydroxy-1-methylethyl)-1H-pyrazole-5-yl]phenyl}-2-thienyl)ethanone]"
3,< 1000 nM,"CC(C)(O)c1cc(-c2ccc(-c3cccc(S(C)(=O)=O)c3)s2)n(-c2cccc(Cl)c2Cl)n1 [Example 1281, 2-[1-(2,3-dichlorophenyl)-5-{5-[3-(methylsulfonyl)phenyl]-2-thienyl}-1H-pyrazol-3-yl]propan-2-ol]"
4,< 1000 nM,"Cc1cc(-c2cccc(S(C)(=O)=O)c2)ccc1-n1nc(C(C)(C)O)cc1-c1c(F)cccc1Cl [Example 115, 2-(5-(2-chloro-6-fluorophenyl)-1-(3-methyl-3′-(methylsulfonyl)biphenyl-4-yl)-1H-pyrazol-3-yl)propan-2-ol]"
5,< 1000 nM,"CC(C)(O)c1cc(-c2ccc(-c3cc(C(F)(F)F)nn3-c3ccccc3Cl)s2)cc(S(C)(=O)=O)c1 [Example 1318, 2-[3-{5-[1-(2-chlorophenyl)-3-(trifluoromethyl)-1H-pyrazol-5-yl]-2-thienyl}-5-(methylsulfonyl)phenyl]propan-2-ol]"
6,< 1000 nM,"CN(Cc1ccncc1)Cc1cc(-c2ccc(-c3cccc(S(C)(=O)=O)c3)s2)n(-c2ccccc2Cl)n1 [Example 547, 1-[1-(2-chlorophenyl)-5-{5-[3-(methylsulfonyl)phenyl]-2-thienyl}-1H-pyrazol-3-yl]-N-methyl-N-(pyridin-4-ylmethyl)methanamine]"
7,< 1000 nM,"COC(=O)c1cc(-c2ccc(-c3cccc(S(=O)(=O)C(C)C)c3)s2)n(-c2ncccc2C(F)(F)F)n1 [Example 1170, methyl 5-(5-{3-[(1-methylethyl)sulfonyl]phenyl}-2-thienyl)-1-[3-(trifluoromethyl)pyridin-2-yl]-1H-pyrazole-3-carboxylate]"
8,< 1000 nM,"CC(C)CNC(=O)c1cc(-c2ccc(-c3cccc(S(C)(=O)=O)c3)cc2Cl)n(-c2cccnc2C(F)(F)F)n1 [Example 1388, 5-(3-chloro-3′-(methylsulfonyl)biphenyl-4-yl)-N-isobutyl-1-(2-(trifluoromethyl)pyridin-3-yl)-1H-pyrazole-3-carboxamide]"
9,1000 to 10000 nM,"Cn1ccc2cc(-c3ccc(-c4cc(C(C)(C)O)nn4-c4ccccc4Cl)cc3)ccc21 [Example 1284, 2-{1-(2-chlorophenyl)-5-[4-(1-methyl-1H-indol-5-yl)phenyl]-1H-pyrazol-3-yl}propan-2-ol]"
10,1000 to 10000 nM,"CC(C)(O)c1cc(-c2ccc(-c3cccc(S(C)(=O)=O)c3)s2)n(-c2ccc(F)cc2)n1 [Example 1263, 2-[1-(4-fluorophenyl)-5-{5-[3-(methylsulfonyl)phenyl]-2-thienyl}-1H-pyrazol-3-yl]propan-2-ol]"
11,< 1000 nM,"NS(=O)(=O)c1cccc(-c2ccc(-c3cc(C(F)(F)F)nn3-c3ccccc3Cl)cc2)c1 [Example 1137, 4′-[1-(2-chlorophenyl)-3-(trifluoromethyl)-1H-pyrazol-5-yl]biphenyl-3-sulfonamide]"
12,< 1000 nM,"CC(O)c1cc(-c2ccc(-c3cccc(S(C)(=O)=O)c3)s2)n(-c2ccccc2Cl)n1 (stereo not drawn) [Example 1157, 1-[1-(2-chlorophenyl)-5-{5-[3-(methylsulfonyl)phenyl]-2-thienyl}-1H-pyrazol-3-yl]ethanol]"
